In patent US20220193043A1 (CIPLA LIMITED, priority 2019, published 2022):
Each block holds one molecule with its values, some of them ahead of it.

How the values were obtained:
Staphylococcus aurues = conditions: cited from earlier work
[1] = Procedure: Bioanalysis was performed using a fit-for-purpose LC-MS/MS method for the quantification of tenofovir in rat plasma samples. The calibration curve (CC) for the method consisted of nine non-zero calibration standards along with a double blank and zero standard samples. Study samples were analyzed along with three sets of quality control samples (18 QC samples; low, medium and high QC samples).
Plasma pharmacokinetic parameters were calculated using the non-compartmental analysis tool of Phoenix software (Version 6.3) and were determined from individual animals in each group. The peak plasma concentration (C), time to achieve peak plasma concentration (Tmax), the area under the plasma concentration-time curve (AUC0-t and AUCinf), AUC Extra (%), elimination half-life (T1/2), clearance (CL), volume of distribution Vd (L/kg) and Mean residence time (MRT) were calculated from intravenous group. The peak plasma concentration (C), time to achieve peak plasma concentration (T), AUC0-t and AUCinf, AUC Extra (%), Mean residence time (MRT) and absolute oral bioavailability (F) were calculated from the oral group.

[2] = cited from earlier work

Molecule: COc1ccc2cc3[n+](cc2c1OC)CCc1cc2c(cc1-3)OCO2 [berberine]
antimicrobial activity (Staphylococcus aurues; berberine alone, in solution): very weak
increase of antimicrobial activity of berberine (Staphylococcus aurues; in combination with 5-Methoxy hydnocarpin (5-MIC), against Staphylococcus aurues): 200 folds

AUCINF ([1]; rat, in vivo, po, 3 mg/kg): 111 ± 20 ng·h/mL
AUClast ([1]; rat, in vivo, po, 3 mg/kg): 106 ± 17.7 ng·h/mL
Vz/F_obs(PO) ([1]; rat, in vivo, po, 3 mg/kg): 71.9 ± 36.1 L/kg
Molecule: Tizanidine hydrochloride [Tizanidine HCl]

CLF_Obs(PO) ([1]; rat plasma, 3 mg/kg PO): 405 ± 189 mL/min/kg
Molecule: [2H]C1([2H])N=C(Nc2c(Cl)ccc3nsnc23)NC1([2H])[2H] [Tizanidine D4]

Molecule: Oc1ccc(C=Cc2cc(O)cc(O)c2)cc1 [resveratrol]
water solubility [2]: < 0.05 mg/mL
